Experiment [1] deals with splenocytes. Description: Cell permeability of peptides with SEQ ID NOS: 22 to 30 via flow cytometry. In kind it is cell-based, mouse. As to conditions: splenocytes of 8-week-old ICR mice, 1 μg/mL, 24 and 48 hours. How it is done:
To determine whether the F1 peptide enables penetration into cells even if a peptide without cell permeability is linked in the middle of any amino acid sequence, splenocytes were isolated from ICR 8-week-old mice and cultured for 1 hour. Afterwards, 1 μg/mL of fluorescent-labeled peptides (SEQ ID NOS: 22 to 30) was treated to cells respectively, followed by culture for 48 hours. Afterwards, flow cytometry was used to analyze the frequency of fluorescent-labeled cells over the culture time (24 and 48 hours) to determine the frequency of cells into which the peptide moved. […] A total of 4 mice were used, with the number of mice per experimental group (Group) set to 2 and the experiment repeated twice.

Experiment [2] relates to splenocytes. In words: Splenocyte permeability by confocal microscopy. Conditions: 1 μg/mL fluorescent-labeled peptide, ICR mouse splenocytes, culture times 1, 4 and 24 hours. In kind it is cell-based. The method, then: To determine the cell permeability of F1 peptides, 1 μg/mL of fluorescent-labeled F1 and F2 peptides were treated to cultures of splenocytes isolated from 4-week-old ICR mice, followed by culture for 24 hours. Afterwards, intracellular fluorescence expression over culture times (1, 4 and 24 hours) was observed by confocal microscopy. The untreated group with no peptide treatment involved was used as a control, alongside with a GFP peptide ([…]) treated group without cell permeability and a scramble D treated group (negative control).

The subject of another experiment is peritoneal macrophages. Description: Peritoneal macrophage permeability by confocal microscopy. The class given is cell-based. As to conditions: 1 μg/mL fluorescent-labeled peptide, ICR mouse peritoneal macrophages, culture times 1, 4 and 24 hours. The method, then: To determine the cell permeability of F1 peptides, 1 μg/mL of fluorescent-labeled F1 and F2 peptides was treated to cultures of peritoneal macrophages isolated from 4-week-old ICR mice, followed by culture for 24 hours. Afterwards, intracellular fluorescence expression over culture times (1, 4 and 24 hours) was observed by confocal microscopy.

The subject of the next experiment is skin (epidermis) tissues. Description: Skin tissue permeability by confocal microscopy. In kind it is in vivo, mouse. Conditions: for fluorescence expression in tissues: 1 μg/mL applied to mouse leg skin with cotton swab, cryosection; for difference in fluorescence expression with or without scratches: normal versus needle-scratched skin, 1 μg/mL, 1˜2 hours. The method, then:
To identify the skin tissue permeability of the F1 peptide, the left leg of 4-week-old ICR mice was left unscratched, and the right leg was scratched with a needle. Afterwards, 1 μg/mL of fluorescent-labeled F1 and F2 peptides was applied to both legs with cotton swabs respectively, and after 1˜2 hours, skin (epidermis) tissues were collected, cryosectioned, and observed under confocal microscopy.

The next experiment has as its system lymph node cells. In words: Cell permeability via flow cytometry, lymph node cells. In kind it is cell-based, mouse. Conditions: for positive cell frequency (of entire cells): 1 μg/mL. How it is done:
(§1) To determine whether the F1 peptide has entered the cell by penetrating the plasma membrane, splenocytes and lymph node cells were isolated from 4-week-old ICR mice, cultured for 1 hour, treated with 1 μg/mL of fluorescent-labeled F1 and F2 peptides, respectively, and then cultured for 48 hours. Flow cytometry was then used to analyze a frequency of fluorescent-labeled cells over culture time (1, 4, 24, and 48 hours) to determine the frequency of cells into which the peptide moved.

The test system of experiment [3] is splenocytes. In words: Cell permeability via flow cytometry, splenocytes. Conditions: culture times 1, 4, 24 and 48 hours. The class given is cell-based, mouse. How it is done:
as §1
(In general: In flow cytometry, cells or beads pass a laser one at a time.)

The mark [4] stands for this setting: tissue collected after 1˜2 hours, confocal microscopy.

Results on four substances are retold here after patent US20250333442A1, “NOVEL CELL-PERMEABLE PEPTIDE AND USE THEREOF” (AJOU UNIVERSITY INDUSTRY-ACADEMIC COOPERATION FOUNDATION, priority 2021, published 2025).

With GCCGEIVDDDDDDDD [Peptide F1D8], in the experiment with splenocytes [1], the “degree of penetration of the D peptide into the cell compared with R8D control” value is reported as “superior to that of the R8 peptide” and the “penetration of the DDDDDDDD peptide inside the cell compared with cTATD control” value is “at a level similar to that of the cTAT peptide”.

For GCDDDDDDDDCGEIV [Peptide F2], the figures for the intracellular fluorescence expression result in the experiment with splenocytes [2] and with peritoneal macrophages were “showed fluorescence expression in splenocytes” and “showed fluorescence expression in peritoneal macrophages”, respectively. For the same substance, the “fluorescence expression in tissues” value in the experiment with skin (epidermis) tissues (setting [4]) is listed as “showed fluorescence expression in tissues”. Also, the “fluorescence expression in hair follicles” value in the experiment with skin (epidermis) tissues (1 μg/mL applied to mouse leg skin, tissue collected after 1˜2 hours, confocal microscopy) is given as “strong fluorescence expression especially in hair follicles”. Further, the “difference in fluorescence expression with or without scratches” value in the experiment on skin (epidermis) tissues is “no significant difference”. Further, the “positive cell frequency (of entire cells)” value in the experiment with lymph node cells (over 48 hours) was “about 60%”.

As to “HKFSVSGEGEGDATC [GFP peptide, GFP peptide without cell permeability, used as control, reference compound]”, the intracellular fluorescence expression result in the experiment with splenocytes [3] is “intracellular fluorescence expression was not observed”; with lymph node cells (culture times 1, 4, 24 and 48 hours) it was “intracellular fluorescence expression was not observed”.

As to GCCGEIV [Peptide F1], the intracellular fluorescence expression entry in the experiment on splenocytes [2] is reported as “showed fluorescence expression in splenocytes”; in the experiment on peritoneal macrophages, “showed fluorescence expression in peritoneal macrophages”. In the experiment with skin (epidermis) tissues (setting [4]), the “fluorescence expression in tissues” value is listed as “showed fluorescence expression in tissues”. Also, the “difference in fluorescence expression with or without scratches” value in the experiment on skin (epidermis) tissues is “no significant difference”. Besides, in the experiment with lymph node cells (over 4 hours), the “positive cell frequency (of entire cells)” value was “about 40%”.
